{
  "source": "patent US20250360132A1",
  "about": "“METHODS OF ADMINISTERING MYOSIN INHIBITORS” (MYOKARDIA, INC., priority 2022, published 2025)",
  "key": {"MATE1": {"molecular_target": "MATE1 (Homo sapiens, UniProt Q96FL8)", "sequence (Q96FL8 whole entry)": "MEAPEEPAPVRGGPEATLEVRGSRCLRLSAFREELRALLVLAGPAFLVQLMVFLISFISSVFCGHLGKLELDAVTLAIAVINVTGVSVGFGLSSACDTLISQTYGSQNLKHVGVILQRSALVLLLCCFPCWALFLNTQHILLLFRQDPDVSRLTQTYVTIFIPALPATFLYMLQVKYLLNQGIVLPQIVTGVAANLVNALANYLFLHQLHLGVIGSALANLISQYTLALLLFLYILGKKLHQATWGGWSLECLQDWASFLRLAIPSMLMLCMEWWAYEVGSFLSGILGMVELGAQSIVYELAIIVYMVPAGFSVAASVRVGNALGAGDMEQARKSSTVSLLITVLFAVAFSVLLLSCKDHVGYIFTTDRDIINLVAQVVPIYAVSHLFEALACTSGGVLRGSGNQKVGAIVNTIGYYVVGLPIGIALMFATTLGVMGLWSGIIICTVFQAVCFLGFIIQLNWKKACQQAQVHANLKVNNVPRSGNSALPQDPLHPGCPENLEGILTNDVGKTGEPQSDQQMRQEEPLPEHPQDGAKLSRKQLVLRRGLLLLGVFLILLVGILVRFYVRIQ", "test": "In vitro transporter inhibition", "type": "in vitro ADME"}, "[1]": {"tested_on": "adults with symptomatic NYHA class II and III obstructive HCM", "test": "EXPLORER-HCM Phase 3, double-blind, randomized, placebo-controlled trial", "type": "in vivo, human", "procedure": "The safety of MAVACAMTEN was evaluated in EXPLORER-HCM, a Phase 3, double-blind, randomized, placebo-controlled trial. Of the 251 adults with obstructive HCM, 123 patients were treated with MAVACAMTEN 2.5-15 mg daily and 128 were treated with placebo.\nThe efficacy of MAVACAMTEN was evaluated in EXPLORER-HCM (NCT-03470545) a Phase 3, double-blind, randomized, placebo-controlled, multicenter, international, parallel-group trial in 251 adults with symptomatic NYHA class II and III obstructive HCM, LVEF ≥55%, and Valsalva LVOT peak gradient ≥50 mmHg at rest or with provocation.\nPatients on dual therapy with beta blocker and calcium channel blocker treatment or monotherapy with disopyramide or ranolazine were excluded. Patients with a known infiltrative or storage disorder causing cardiac hypertrophy that mimicked obstructive HCM, such as Fabry disease, amyloidosis, or Noonan syndrome with left ventricular hypertrophy, were also excluded.\nPatients were randomized in a 1:1 ratio to receive either a starting dose of 5 mg of MAVACAMTEN or placebo once daily for 30 weeks. Treatment assignment was stratified by baseline NYHA functional class, baseline use of beta blockers, and type of ergometer (treadmill or exercise bicycle).\nAll patients were initiated on MAVACAMTEN 5 mg (or matching placebo) once daily, and the dose was periodically adjusted to optimize patient response (decrease in LVOT gradient with Valsalva maneuver) and maintain LVEF ≥50%. The dose was also informed by plasma concentrations of MAVACAMTEN.\nThe primary composite functional endpoint, assessed at 30 weeks, was defined as the proportion of patients who achieved either improvement of […] (pVO2) by ≥1.5 mL/kg/min plus improvement in NYHA class by at least 1 or improvement of pVO2 by ≥3.0 mL/kg/min plus no worsening in NYHA class.\nThe treatment effects of MAVACAMTEN on LVOT obstruction, functional capacity, and health status were assessed by change from baseline through Week 30 in post-exercise LVOT peak gradient, change in pVO2, proportion of patients with improvement in NYHA class, Kansas City Cardiomyopathy Questionnaire-23 (KCCQ-23) Clinical Summary Score (CSS), and Hypertrophic Cardiomyopathy Symptom Questionnaire (HCMSQ) Shortness of Breath (SoB) domain score.\nMissing data were not imputed to summarize the baseline and change from baseline to Week 30 values. Difference in mean change from baseline between treatment groups was estimated using a mixed model for repeated measures."}, "rasH2 transgenic mouse": {"tested_on": "rasH2 transgenic mouse", "test": "6-month rasH2 transgenic mouse carcinogenicity study", "type": "in vivo"}, "CYP3A4": {"molecular_target": "CYP3A4 (Homo sapiens, UniProt P08684)", "sequence (P08684 whole entry)": "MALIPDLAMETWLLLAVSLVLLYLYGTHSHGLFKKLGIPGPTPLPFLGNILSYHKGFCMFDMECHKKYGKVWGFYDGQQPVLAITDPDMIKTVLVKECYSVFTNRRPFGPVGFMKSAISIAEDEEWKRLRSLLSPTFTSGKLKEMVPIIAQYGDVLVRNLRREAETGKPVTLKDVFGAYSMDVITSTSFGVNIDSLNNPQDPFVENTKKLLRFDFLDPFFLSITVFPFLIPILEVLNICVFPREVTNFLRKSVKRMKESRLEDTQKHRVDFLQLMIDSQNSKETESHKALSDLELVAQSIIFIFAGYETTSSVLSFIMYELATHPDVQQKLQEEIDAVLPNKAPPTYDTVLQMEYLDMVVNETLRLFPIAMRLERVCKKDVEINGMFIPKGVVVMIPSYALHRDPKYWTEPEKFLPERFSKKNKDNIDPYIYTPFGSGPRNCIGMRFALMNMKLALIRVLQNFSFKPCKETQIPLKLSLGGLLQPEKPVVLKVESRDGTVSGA", "test": "Metabolism, contribution of CYP3A4", "type": "in vitro ADME", "description": "Mavacamten is extensively metabolized, primarily through CYP2C19 (74%), CYP3A4 (18%), and CYP2C9 (8%).\nStatement of Purpose: Mavacamten is a first-in-class, selective, allosteric, and reversible cardiac myosin inhibitor in development for the treatment of adults with symptomatic obstructive hypertrophic cardiomyopathy. Mavacamten is hepatically metabolized predominantly via CYP2C19 (74%), CYP3A4 (18%) and CYP2C9 (8%). A previously developed fit-for-purpose physiologically based pharmacokinetic (PBPK) model was applied to explore the induction effects of a strong CYP3A4/CYP2C19 inducer-rifampin, as well as a strong CYP3A4 inducer-carbamazepine, on mavacamten exposures."}, "[2]": {"tested_on": "organic anion transporters (OATs)", "test": "In vitro transporter inhibition", "type": "in vitro ADME"}, "[3]": {"test": "Clinical pharmacokinetics", "type": "in vivo, human", "procedure": "At the same dose level of MAVACAMTEN, 170% higher exposures of mavacamten are observed in patients with HCM compared to healthy subjects.\nThe Tmax was increased by 4 hours.\nMavacamten has a variable terminal t1/2 that depends on CYP2C19 metabolic status. […] Drug accumulation occurs with an accumulation ratio of about 2-fold for Cmax and about 7-fold for AUC in CYP2C19 NMs. The accumulation depends on the metabolism status for CYP2C19 with the largest accumulation observed in CYP2C19 PMs. At steady-state, the peak-to-trough plasma concentration ratio with once daily dosing is approximately 1.5.\nFollowing a single 25 mg dose of radiolabeled mavacamten, 7% of the dose was recovered in feces (1% unchanged) and 85% in urine (3% unchanged).\nThe effects of severe (eGFR: 15 to 30 mL/min/1.73 m^2) renal impairment and kidney failure (eGFR: <15 mL/min/1.73 m^2; including patients on dialysis) are unknown."}},
  "data": [
    {"smiles": "CC(C)n1c(=O)cc(N[C@@H](C)c2ccccc2)[nH]c1=O", "note": "[mavacamten, (S)-3-Isopropyl-6-((1-phenylethyl)amino)pyrimidine-2,4(1H,3H)-dione]", "values": [
      {"measurement": "Inhibition of MATE1", "setting": "MATE1", "value": "does not inhibit"},
      {"measurement": "Subgroup analysis of the primary composite functional endpoint", "setting": "[1]; FIG. 17", "value": "consistently favored MAVACAMTEN across all subgroups analyzed"},
      {"measurement": "Adverse reaction: syncope, patients", "setting": "[1]; MAVACAMTEN 2.5-15 mg daily, N=123, placebo 2%", "value": 6, "unit": "%"},
      {"measurement": "Adverse reaction: dizziness, patients", "setting": "[1]; MAVACAMTEN 2.5-15 mg daily, N=123, placebo 18%", "value": 27, "unit": "%"},
      {"measurement": "Improvement across secondary endpoints vs placebo", "setting": "[1]; Week 30", "value": "greater improvement compared to the placebo group across all secondary endpoints"},
      {"measurement": "NYHA Class improved ≥1, difference vs placebo", "setting": "[1]; Week 30", "value": 34, "unit": "%"},
      {"measurement": "Total responders, difference vs placebo (95% CI)", "setting": "[1]; Week 30", "value": "19% (9, 30)"},
      {"measurement": "pVO2 ≥1.5 mL/kg/min and decreased NYHA, difference vs placebo (95% CI)", "setting": "[1]; Week 30", "value": "19% (9, 30)"},
      {"measurement": "pVO2 ≥3 mL/kg/min and NYHA not increased, difference vs placebo (95% CI)", "setting": "[1]; Week 30", "value": "13% (3, 22)"},
      {"measurement": "Change from baseline pVO2 ≥1.5 mL/kg/min and decreased NYHA, number", "setting": "[1]; Week 30, N=123", "value": 41},
      {"measurement": "Change from baseline pVO2 ≥3 mL/kg/min and NYHA not increased, number", "setting": "[1]; Week 30, N=123", "value": 29},
      {"measurement": "Number with NYHA Class improved ≥1", "setting": "[1]; Week 30, N=123", "value": 80},
      {"measurement": "Primary composite functional endpoint, total responders, number", "setting": "[1]; Week 30, N=123", "value": 45},
      {"measurement": "Primary composite functional endpoint, total responders, percent", "setting": "[1]; Week 30, N=123, placebo 17%", "value": 37, "unit": "%"},
      {"measurement": "KCCQ-23 CSS, change from baseline, mean", "setting": "[1]; Week 30, n=99, placebo 4", "value": 14},
      {"measurement": "HCMSQ SoB, change from baseline, mean", "setting": "[1]; Week 30, n=108, placebo −1", "value": "−3"},
      {"measurement": "KCCQ-23 PL, change from baseline, mean", "setting": "[1]; Week 30, placebo 4", "value": 15},
      {"measurement": "KCCQ-23 TSS, change from baseline, mean", "setting": "[1]; Week 30, placebo 5", "value": 12},
      {"measurement": "Change from baseline pVO2 ≥3 mL/kg/min and NYHA not increased, percent", "setting": "[1]; Week 30, placebo 11%", "value": 23, "unit": "%"},
      {"measurement": "Change from baseline pVO2 ≥1.5 mL/kg/min and decreased NYHA, percent", "setting": "[1]; Week 30, placebo 14%", "value": 33, "unit": "%"},
      {"measurement": "Percent with NYHA Class improved ≥1", "setting": "[1]; Week 30, placebo 31%", "value": "(65%)"},
      {"measurement": "LVEF outcome after interruption in patients with LVEF <50%", "setting": "[1]; all 7 patients", "value": "LVEF recovered following interruption"},
      {"measurement": "Benefit by background beta blocker therapy", "setting": "[1]; attenuated improvement in pVO2", "value": "smaller in patients on background beta blocker therapy"},
      {"measurement": "Post-Exercise LVOT gradient, difference vs placebo", "setting": "[1]; baseline to Week 30", "value": "−35", "unit": "mmHg"},
      {"measurement": "pVO2, difference vs placebo", "setting": "[1]; baseline to Week 30", "value": 1.4, "unit": "mL/kg/min"},
      {"measurement": "Change in pVO2, mean", "setting": "[1]; baseline to Week 30, placebo −0.1", "value": 1.4, "unit": "mL/kg/min"},
      {"measurement": "Change in Post-Exercise LVOT gradient, mean", "setting": "[1]; baseline to Week 30, placebo −10", "value": "−47", "unit": "mmHg"},
      {"measurement": "patients who temporarily interrupted their dose due to LVEF <50%", "setting": "[1]; in vivo", "value": "Three"},
      {"measurement": "patients whose LVEF reduction to <50% was asymptomatic", "setting": "[1]; of the 7 MAVACAMTEN patients", "value": 3},
      {"measurement": "mean (SD) absolute change from baseline in LVEF", "setting": "[1]; over the 30-week treatment period, placebo 0% (7)", "value": "-4% (8)"},
      {"measurement": "Syncope leading to discontinuation, patients", "setting": "[1]; patients receiving MAVACAMTEN", "value": 0.8, "unit": "%"},
      {"measurement": "onset of reduction in LVOT gradient", "setting": "[1]; sustained throughout the 30-week trial", "value": "reductions in mean resting and provoked (Valsalva) LVOT gradient by Week 4"},
      {"measurement": "patients with reversible reductions in LVEF to <50%, number", "setting": "[1]; while on treatment, N=123", "value": 7},
      {"measurement": "patients with reversible reductions in LVEF to <50%, percent", "setting": "[1]; while on treatment, placebo 2%", "value": 6, "unit": "%"},
      {"measurement": "Carcinogenicity", "setting": "rasH2 transgenic mouse; 6-month, up to 2.0 mg/kg/day in males and 3.0 mg/kg/day in females", "value": "no evidence of carcinogenicity"},
      {"measurement": "Exposure (AUC) compared to humans at the MRHD", "setting": "rasH2 transgenic mouse; females, 3.0 mg/kg/day", "value": 3, "unit": "fold"},
      {"measurement": "Exposure (AUC) compared to humans at the MRHD", "setting": "rasH2 transgenic mouse; males, 2.0 mg/kg/day", "value": 1.8, "unit": "fold"},
      {"measurement": "Metabolism through CYP3A4", "setting": "CYP3A4", "value": 18, "unit": "%"},
      {"measurement": "Inhibition of OATs", "setting": "[2]", "value": "does not inhibit"},
      {"measurement": "Pharmacokinetics in specific populations", "setting": "[3]; age 18-82 years, sex, race, ethnicity, mild to moderate renal impairment", "value": "No clinically significant differences"},
      {"measurement": "Effect of food on pharmacokinetics", "setting": "[3]; high fat meal", "value": "No clinically significant differences"},
      {"measurement": "Dose proportionality of exposure", "setting": "[3]; multiple once-daily doses of 1 mg to 15 mg", "value": "increases generally dose proportionally"},
      {"measurement": "Higher exposure in patients with HCM compared to healthy subjects", "setting": "[3]; same dose level", "value": 170, "unit": "%"}
    ]}
  ]
}
